Tests used:
Format in all cases: functional, Mus musculus
P388 [1] = experiment: Number of Survivors determined for antitumor activity against P388 Lymphocytic Leukemia system on day 5 at a dose of 17 mg/kg (6 out of 6)
P388 [2] = experiment: Number of Survivors determined for antitumor activity against P388 Lymphocytic Leukemia system on day 5 at a dose of 34 mg/kg (6 out of 6)
P388 [3] = experiment: Survival rate of the animals determined for antitumor activity against P388 Lymphocytic Leukemia system at a dose of 17 mg/kg
P388 [4] = experiment: Survival rate of the animals determined for antitumor activity against P388 Lymphocytic Leukemia system at a dose of 34 mg/kg
P388 [5] = experiment: Number of Survivors determined for antitumor activity against P388 Lymphocytic Leukemia system on day 5 at a dose of 68 mg/kg(6 out of 6)
P388 [6] = experiment: Number of Survivors determined for antitumor activity against P388 Lymphocytic Leukemia system on day 5 at a dose of 8.5 mg/kg(6 out of 6)
P388 [7] = experiment: Weight difference observed in survivors treated for antitumor activity against P388 Lymphocytic Leukemia system at a dose of 17 mg/kg
P388 [8] = experiment: Survival rate of the animals determined for antitumor activity against P388 Lymphocytic Leukemia system at a dose of 68 mg/kg
P388 [9] = experiment: Survival rate of the animals determined for antitumor activity against P388 Lymphocytic Leukemia system at a dose of 8.5 mg/kg
P388 [10] = experiment: Weight difference observed in survivors treated for antitumor activity against P388 Lymphocytic Leukemia system at a dose of 34 mg/kg
P388 [11] = experiment: Weight difference observed in survivors treated for antitumor activity against P388 Lymphocytic Leukemia system at a dose of 68 mg/kg
P388 [12] = experiment: Weight difference observed in survivors treated for antitumor activity against P388 Lymphocytic Leukemia system at a dose of 8.5 mg/kg
P388 [13] = experiment: Number of Survivors determined for antitumor activity against P388 Lymphocytic Leukemia system on day 5 at a dose of 120 mg/kg (6 out of 6)
P388 [14] = experiment: Number of Survivors determined for antitumor activity against P388 Lymphocytic Leukemia system on day 5 at a dose of 15 mg/kg (6 out of 6)
P388 [15] = experiment: Survival rate of the animals determined for antitumor activity against P388 Lymphocytic Leukemia system at a dose of 15 mg/kg
P388 [16] = experiment: Number of Survivors determined for antitumor activity against P388 Lymphocytic Leukemia system on day 5 at a dose of 240 mg/kg (6 out of 6)
P388 [17] = experiment: Number of Survivors determined for antitumor activity against P388 Lymphocytic Leukemia system on day 5 at a dose of 30 mg/kg (6 out of 6)
P388 [18] = experiment: Survival rate of the animals determined for antitumor activity against P388 Lymphocytic Leukemia system at a dose of 240 mg/kg
P388 [19] = experiment: Survival rate of the animals determined for antitumor activity against P388 Lymphocytic Leukemia system at a dose of 30 mg/kg
P388 [20] = experiment: Number of Survivors determined for antitumor activity against P388 Lymphocytic Leukemia system on day 5 at a dose of 480 mg/kg(6 out of 6)
P388 [21] = experiment: Number of Survivors determined for antitumor activity against P388 Lymphocytic Leukemia system on day 5 at a dose of 60 mg/kg (6 out of 6)
P388 [22] = experiment: Survival rate of the animals determined for antitumor activity against P388 Lymphocytic Leukemia system at a dose of 480 mg/kg
P388 [23] = experiment: Survival rate of the animals determined for antitumor activity against P388 Lymphocytic Leukemia system at a dose of 60 mg/kg
P388 [24] = experiment: Survival rate of the animals determined for antitumor activity against P388 Lymphocytic Leukemia system at a dose of 120 mg/kg
P388 [25] = experiment: Weight difference observed in survivors treated for antitumor activity against P388 Lymphocytic Leukemia system at a dose of 240 mg/kg
P388 [26] = experiment: Weight difference observed in survivors treated for antitumor activity against P388 Lymphocytic Leukemia system at a dose of 30 mg/kg
P388 [27] = experiment: Weight difference observed in survivors treated for antitumor activity against P388 Lymphocytic Leukemia system at a dose of 480 mg/kg
P388 [28] = experiment: Weight difference observed in survivors treated for antitumor activity against P388 Lymphocytic Leukemia system at a dose of 60 mg/kg
P388 [29] = experiment: Weight difference observed in survivors treated for antitumor activity against P388 Lymphocytic Leukemia system at a dose of 120 mg/kg
P388 [30] = experiment: Weight difference observed in survivors treated for antitumor activity against P388 Lymphocytic Leukemia system at a dose of 15 mg/kg
P388 [31] = experiment: Number of Survivors determined for antitumor activity against P388 Lymphocytic Leukemia system on day 5 at a dose of 240 mg/kg ([…])
P388 [32] = experiment: Number of Survivors determined for antitumor activity against P388 Lymphocytic Leukemia system on day 5 at a dose of 10.5 mg/kg (6 out of 6)
P388 [33] = experiment: Number of Survivors determined for antitumor activity against P388 Lymphocytic Leukemia system on day 5 at a dose of 21 mg/kg(6 out of 6)
P388 [34] = experiment: Weight difference observed in survivors treated for antitumor activity against P388 Lymphocytic Leukemia system at a dose of 84 mg/kg
P388 [35] = experiment: Survival rate of the animals determined for antitumor activity against P388 Lymphocytic Leukemia system at a dose of 21 mg/kg
P388 [36] = experiment: Number of Survivors determined for antitumor activity against P388 Lymphocytic Leukemia system on day 5 at a dose of 42 mg/kg(6 out of 6)
P388 [37] = experiment: Weight difference observed in survivors treated for antitumor activity against P388 Lymphocytic Leukemia system at a dose of 21 mg/kg
P388 [38] = experiment: Number of Survivors determined for antitumor activity against P388 Lymphocytic Leukemia system on day 5 at a dose of 42 mg/kg
P388 [39] = experiment: Survival rate of the animals determined for antitumor activity against P388 Lymphocytic Leukemia system at a dose of 10.5 mg/kg
P388 [40] = experiment: Weight difference observed in survivors treated for antitumor activity against P388 Lymphocytic Leukemia system at a dose of 42 mg/kg
P388 [41] = experiment: Weight difference observed in survivors treated for antitumor activity against P388 Lymphocytic Leukemia system at a dose of 10.5 mg/kg
P388 [42] = experiment: Number of Survivors determined for antitumor activity against P388 Lymphocytic Leukemia system on day 5 at a dose of 84 mg/kg(6 out of 6)
P388 [43] = experiment: Survival rate of the animals determined for antitumor activity against P388 Lymphocytic Leukemia system at a dose of 84 mg/kg
P388 [44] = experiment: Survival rate of the animals determined for antitumor activity against P388 Lymphocytic Leukemia system at a dose of 192 mg/kg
P388 [45] = experiment: Weight difference observed in survivors treated for antitumor activity against P388 Lymphocytic Leukemia system at a dose of 192 mg/kg
P388 [46] = experiment: Weight difference observed in survivors treated for antitumor activity against P388 Lymphocytic Leukemia system at a dose of 96 mg/kg
P388 [47] = experiment: Survival rate of the animals determined for antitumor activity against P388 Lymphocytic Leukemia system at a dose of 48 mg/kg
P388 [48] = experiment: Weight difference observed in survivors treated for antitumor activity against P388 Lymphocytic Leukemia system at a dose of 24 mg/kg
P388 [49] = experiment: Weight difference observed in survivors treated for antitumor activity against P388 Lymphocytic Leukemia system at a dose of 48 mg/kg
P388 [50] = experiment: Number of Survivors determined for antitumor activity against P388 Lymphocytic Leukemia system on day 5 at a dose of 96 mg/kg(5 out of 6)
P388 [51] = experiment: Survival rate of the animals determined for antitumor activity against P388 Lymphocytic Leukemia system at a dose of 96 mg/kg

CC(O)C(C)(O)C(=O)OCC1=CC[N+]2([O-])CC[C@@H](O)[C@@H]12 (stereo partly drawn)
Survivors (P388 [1]): 6
Survivors (P388 [2]): 6
T/C (P388 [3]): 117%
T/C (P388 [4]): 127%
Survivors (P388 [5]): 6
Survivors (P388 [6]): 6
T-C (P388 [7]): 0
T/C (P388 [8]): 131%
T/C (P388 [9]): 115%
T-C (P388 [10]): -0.4
T-C (P388 [11]): -0.4
T-C (P388 [12]): -0.3

CC(C)CC(=O)OCC1=CCN2CC[C@@H](O)[C@@H]12
Survivors (P388 [13]): 6
Survivors (P388 [14]): 6
T/C (P388 [15]): 105%
Survivors (P388 [16]): 6
Survivors (P388 [17]): 6
T/C (P388 [18]): 108%
T/C (P388 [19]): 109%
Survivors (P388 [20]): 6
Survivors (P388 [21]): 6
T/C (P388 [22]): 114%
T/C (P388 [23]): 105%
T/C (P388 [24]): 108%
T-C (P388 [25]): -0.8
T-C (P388 [26]): -0.3
T-C (P388 [27]): -2.7
T-C (P388 [28]): -0.4
T-C (P388 [29]): -0.1
T-C (P388 [30]): -0.6

O=C(Cc1ccccc1)OCC1=CCN2CC[C@@H](O)[C@@H]12
Survivors (P388 [13]): 6
Survivors (P388 [14]): 6
Survivors (P388 [31]): 6
T/C (P388 [15]): 97%
Survivors (P388 [17]): 6
T/C (P388 [18]): 105%
T/C (P388 [19]): 99%
Survivors (P388 [20]): 6
Survivors (P388 [21]): 6
T/C (P388 [22]): 116%
T/C (P388 [23]): 97%
T/C (P388 [24]): 109%
T-C (P388 [25]): -0.1
T-C (P388 [26]): -0.5
T-C (P388 [27]): -2.1
T-C (P388 [28]): -0.3
T-C (P388 [29]): -0.6
T-C (P388 [30]): -0.8

O=C(Cc1ccccc1)OCC1=CC[N+]2([O-])CC[C@@H](O)C12.O=C(OCC1=CC[N+]2([O-])CC[C@@H](O)C12)c1ccccc1 (stereo partly drawn)
Survivors (P388 [32]): 6
Survivors (P388 [33]): 6
T-C (P388 [34]): 0.1
T/C (P388 [35]): 108%
Survivors (P388 [36]): 6
T-C (P388 [37]): -0.1
T/C (P388 [38]): 117%
T/C (P388 [39]): 104%
T-C (P388 [40]): 0.3
T-C (P388 [41]): 0
Survivors (P388 [42]): 6
T/C (P388 [43]): 114%

CC(C)C(O)(C(=O)OCC1=CC[N+]2([O-])CC[C@@H](O)C12)C(C)O (stereo in doubt; form 2)
T/C (P388 [44]): 118%
T-C (P388 [45]): -4.8
T-C (P388 [46]): 0.1
T/C (P388 [47]): 100%
T-C (P388 [48]): -0.4
T-C (P388 [49]): 1.3
Survivors (P388 [50]): 5
T/C (P388 [51]): 116%

From ChEMBL document CHEMBL1123145, “Synthesis of pyrrolizidine alkaloids indicine, intermedine, lycopsamine, and analogues and their N-oxides. Potential antitumor agents” (1985)
